Measurements published in ChEMBL document CHEMBL1151132, “Autooxidation Studies on the Marine Sesterterpene Tetronic Acid, Variabilin” (J Nat Prod, 1989).

How the values were obtained:
[1] = Cytotoxicity against […] BSC cells at 5 ug /6 mm disk; format: cell-based
Poliovirus 1 [2] = test: Antiviral activity against PV1 infected in […] BSC cells at 5 ug/6 mm disk; format: functional
Human alphaherpesvirus 1 [3] = test: Antiviral activity against HSV1 infected in […] BSC cells at 20 ug/6 mm disk; format: functional
[4] = Cytotoxicity against […] BSC cells at 20 ug /6 mm disk; format: cell-based
Poliovirus 1 [5] = test: Antiviral activity against PV1 infected in […] BSC cells at 20 ug/6 mm disk; format: functional
Poliovirus 1 [6] = test: Antiviral activity against PV1 infected in […] BSC cells at 2 ug/6 mm disk; format: functional
[7] = Cytotoxicity against […] BSC cells at 2 ug /6 mm disk; format: cell-based
Human alphaherpesvirus 1 [8] = test: Antiviral activity against HSV1 infected in […] BSC cells at 2 ug/6 mm disk; format: functional

| Compound | inhibition zone (IZ) [1] | inhibition zone (IZ) (Poliovirus 1 [2]) | inhibition zone (IZ) (Human alphaherpesvirus 1 [3]) | inhibition zone (IZ) [4] | inhibition zone (IZ) (Poliovirus 1 [5]) | inhibition zone (IZ) (Poliovirus 1 [6]) | inhibition zone (IZ) [7] | inhibition zone (IZ) (Human alphaherpesvirus 1 [8]) |
| --- | --- | --- | --- | --- | --- | --- | --- | --- |
| C/C(=C\CCc1ccoc1)CC/C=C(\C)CCCC(C)CC(=O)O (stereo unspecified) | 2 mm | 2 mm |  |  |  |  |  |  |
| COC1=C(C)C(=O)O/C1=C\C(C)CCC/C(C)=C/CC/C(C)=C/CCC1(O)C(OC)OC(OC)C1O (mixture of isomers) |  |  | 4 mm | 1 mm | 4 mm |  |  |  |
| COC1=C(C)C(=O)O/C1=C\C(C)CCC/C(C)=C/CC/C(C)=C/CCC1=CC(O)OC1=O (mixture of isomers) |  |  |  | 4 mm |  | 2 mm | 2 mm |  |
| COC1=C(C)C(=O)O/C1=C\C(C)CCC/C(C)=C/CC/C(C)=C/CCC1=CC(=O)OC1O (mixture of isomers) |  |  | 4 mm | 2 mm | 4 mm | 2 mm | 1 mm |  |
| CC1=C(O)/C(=C/C(C)CCC/C(C)=C/CC/C(C)=C/CCc2ccoc2)OC1=O (stereo unspecified) [VARIABILIN] |  |  |  |  |  | 4 mm | 1 mm | 4 mm |
